Laboratory results taken from patent US20240216401A1, “COMBINATION THERAPY BY USING AKR1C3-ACTIVATED COMPOUND WITH IMMUNE CHECKPOINT INHIBITOR” (OBI Pharma, Inc., priority 2021, published 2024).
Several values for one entry are separate records, joined by “and”; a condition that tells them apart may be missing. Equal values may be shown once.

What was measured:
[1] = tested on: NK cells in tumor-infiltrating lymphocytes; test: Example 2: flow cytometry, percentage of NK cells in TILs; format: in vivo, Mus musculus; conditions: individual animals and Mean
Procedure: (§1) Mice were sacrificed by CO2 euthanasia at the end of the study duration, and the connective tissue around tumor was resected. The tumor samples were then weighed and cut equally into three sections if the tumor weight over 400 mg. The tumor tissue was prepared for the isolation of tumor-infiltrating lymphocytes (TILs). The rest of one section was fixed in 10% formaldehyde and embedded in paraffin; the other was stored at a temperature below −70° C.
The tumor samples were dissected into smaller fragments using scalpels and then digested with a cocktail of collagenase, DNase I, and Hyaluronidase (Collagenase #C5138, DNase I #D5025, Hyaluronidase #H6254, SigmaAldrich) for at least 2 hours.
Cells were stained with the fluorescently conjugated surface antibodies and incubated for 30 minutes at 4° C., and then resuspended in staining buffer for flow cytometric analysis. Flow cytometry was done using a Navios EX Flow Cytometer (Beckman Coulter). Data were analyzed using the Kaluza Analysis Software (Beckman Coulter).

[2] = tested on: preclinical models of T-ALL; conditions: in vitro and in vivo; references 25, 26; cited from earlier work
HepG2 tumor = test: Example 2: tumor volume, tumor weight and TGI in HepG2 tumor bearing humanized mice; format: in vivo, Mus musculus; conditions: for mean tumor volume: mean±SEM; for tumor growth inhibition (TGI): Day 30 vs Day 0, alone or with anti-hPD-1 20 mg/kg
Procedure: 1. Species: Mus musculus • Strain: Advanced immunodeficiency mouse. • (NOD.CgPrkdc^scid Il2rg) • Source: Trineo Biotechnology Co., LTD.
Each group contains six mice. The human hepatocellular carcinoma cell line HepG2 were subcutaneously inoculated to the advanced immune-deficiency mice. Total of 42 mice were included in this study.
2.2. […] The subcutaneous injection volume was […].
3.1. […] The injection was performed using insulin syringe with the dosage of 0.3 mg/kg or 1 mg/kg and the injection volume was 5 mL/kg. […] The reference item was administered for G1. The procedure followed the standards of sample administration. The starting day of test item administration was denoted as the first experimental day (DO).
3.2. […] The injection was performed using insulin syringe with the dosage of 20 mg/kg and injection volume of 10 mL/kg. […] The procedure followed the standards of sample administration.
The measurement was performed from the next day of the inoculation. The tumor volumes were measured and recorded twice a week (Mon., Thur.). Tumor volume was calculated by ellipsoid equation according to the records ((major axis×minor axis×minor axis)×(π/6)).
Tumor volumes were used to calculate tumor growth inhibition (TGI) rates according to the following formula: TGI (%)=[1−(Ti−T0)/(Ci−C0)]×100, where Ti and Ci indicate the mean tumor volume in the treatment groups and vehicle group at the end of the experiment (Day 30). Whereas, T0 and C0 indicate the mean tumor volumes in the treatment group and vehicle group at the beginning of the experiment (Day 0).
as §1

[3] = G2: OBI-3424 (0.3 mg/kg), 0.3 mg/kg
[4] = G2: OBI-3424 (0.3 mg/kg), 0.3 mg/kg, mean
[5] = G3: OBI-3424 (1 mg/kg), 1 mg/kg
[6] = G3: OBI-3424 (1 mg/kg), 1 mg/kg, mean

Question: Which “NK cells (CD45^+CD56^+) CD45^+ Gated %” value [1, 3] does the source give for `C[C@H](OP(=O)(N1CC1)N1CC1)c1ccc([N+](=O)[O-])c(Oc2cccc(C(=O)N(C)C)c2)c1` [OBI-3424, (S)-1-(3-(3-N,N-dimethylaminocarbonyl)phenoxyl-4-mtrophenyl)-1-ethyl-N,N′-bis(ethylene)phosphoramidate] here?
Answer: 6.33% and 8.78% and 8.87% and 10.05% and 2.25% and 6.70%

Question: What about the “NK cells (CD45^+CD56^+) Cell count” value [1, 3] of the same compound?
Answer: 2.30 ×10^5 and 6.67 ×10^5 and 20.68 ×10^5 and 1.46 ×10^5 and 2.47 ×10^5 and 1.84 ×10^5

Question: What about the “NK cells (CD45^+CD56^+) Total %” value [1, 3] of the same compound?
Answer: 1.18% and 3.26% and 3.83% and 6.83% and 1.00% and 2.54%

Question: And the “PD-1^+ NK cells (CD45^+CD56^+PD-1^+) Cell count” value [1, 3]?
Answer: 1.65 ×10^5 and 2.21 ×10^5 and 10.85 ×10^5 and 0.31 ×10^5 and 2.17 ×10^5 and 0.83 ×10^5

Question: And the “PD-1^+ NK cells (CD45^+CD56^+PD-1^+) NK Gated %” value [1, 3]?
Answer: 71.96% and 33.17% and 52.46% and 21.08% and 87.65% and 44.79%

Question: What about the “PD-1^+ NK cells (CD45^+CD56^+PD-1^+) Total %” value [1, 3] of the same compound?
Answer: 0.85% and 1.08% and 2.01% and 1.44% and 0.88% and 1.14%

Question: What about the “NK cells (CD45^+CD56^+) CD45^+ Gated %” value [1, 4] of the same compound?
Answer: 7.16%

Question: What about the “NK cells (CD45^+CD56^+) Cell count” value [1, 4] of the same compound?
Answer: 5.90 ×10^5

Question: What about the “NK cells (CD45^+CD56^+) Total %” value [1, 4] of the same compound?
Answer: 3.11%

Question: And the “PD-1^+ NK cells (CD45^+CD56^+PD-1^+) Cell count” value [1, 4]?
Answer: 3.00 ×10^5

Question: And the “PD-1^+ NK cells (CD45^+CD56^+PD-1^+) NK Gated %” value [1, 4]?
Answer: 51.85%

Question: And the “PD-1^+ NK cells (CD45^+CD56^+PD-1^+) Total %” value [1, 4]?
Answer: 1.23%

Question: And the “NK cells (CD45^+CD56^+) CD45^+ Gated %” value [1, 5]?
Answer: 3.99% (2×) and 5.65% and 6.00% and 4.05% and 4.24%

Question: And the “NK cells (CD45^+CD56^+) Cell count” value [1, 5]?
Answer: 0.77 ×10^5 and 4.27 ×10^5 and 2.08 ×10^5 and 2.41 ×10^5 and 1.96 ×10^5 and 1.99 ×10^5

Question: What about the “NK cells (CD45^+CD56^+) Total %” value [1, 5] of the same compound?
Answer: 2.64% and 3.38% and 2.95% and 2.44% and 2.63% and 2.46%

Question: And the “PD-1^+ NK cells (CD45^+CD56^+PD-1^+) Cell count” value [1, 5]?
Answer: 0.26 ×10^5 and 1.64 ×10^5 and 1.02 ×10^5 and 1.77 ×10^5 (2×) and 1.04 ×10^5

Question: And the “PD-1^+ NK cells (CD45^+CD56^+PD-1^+) NK Gated %” value [1, 5]?
Answer: 34.34% and 38.34% and 48.85% and 73.40% and 53.12% and 88.62%

Question: And the “PD-1^+ NK cells (CD45^+CD56^+PD-1^+) Total %” value [1, 5]?
Answer: 0.91% and 1.30% and 1.44% and 1.79% and 1.40% and 2.18%

Question: What about the “NK cells (CD45^+CD56^+) CD45^+ Gated %” value [1, 6] of the same compound?
Answer: 4.65%

Question: What about the “NK cells (CD45^+CD56^+) Cell count” value [1, 6] of the same compound?
Answer: 2.25 ×10^5

Question: What about the “NK cells (CD45^+CD56^+) Total %” value [1, 6] of the same compound?
Answer: 2.75%

Question: What about the “PD-1^+ NK cells (CD45^+CD56^+PD-1^+) Cell count” value [1, 6] of the same compound?
Answer: 1.25 ×10^5

Question: And the “PD-1^+ NK cells (CD45^+CD56^+PD-1^+) NK Gated %” value [1, 6]?
Answer: 56.11%

Question: And the “PD-1^+ NK cells (CD45^+CD56^+PD-1^+) Total %” value [1, 6]?
Answer: 1.50%

Question: What about the “efficacy against preclinical models of T-ALL (in words)” value [2] of the same compound?
Answer: potent efficacy

Question: And the “dose relation of reduction in mean tumor volume (in words)” value (HepG2 tumor; Example 2, D30, OBI-3424 0.3 mg/kg and 1 mg/kg)?
Answer: dose-related reduction

Question: What about the mean tumor volume (HepG2 tumor; Example 2, D30, OBI-3424 0.3 mg/kg IV, alone (G2) or with anti-hPD-1 20 mg/kg IP (G5)) of the same compound?
Answer: 716.44±31.12 mm^3

Question: And the mean tumor volume (HepG2 tumor; Example 2, D30, OBI-3424 1 mg/kg IV, alone (G3) or with anti-hPD-1 20 mg/kg IP (G6))?
Answer: 216.90±22.20 mm^3

Question: And the “mean tumor volume compared with vehicle (in words)” value (HepG2 tumor; Example 2, D30, vs vehicle (G1), OBI-3424 high-dose 1 mg/kg (G3), anti-hPD-1 20 mg/kg (G4), combinations G5-G7)?
Answer: significantly suppressed

Question: And the “tumor weight compared with vehicle (in words)” value (HepG2 tumor; Example 2, Day 30, OBI-3424 low-dose (G2), high-dose (G3), combinations G5-G7 vs vehicle (G1))?
Answer: significantly suppressed

Question: And the “tumor growth inhibition (TGI)” value (HepG2 tumor; Example 2, high-dose OBI-3424 (1 mg/kg))?
Answer: 113.27%

Question: What about the “tumor growth inhibition (TGI)” value (HepG2 tumor; Example 2, low-dose OBI-3424 (0.3 mg/kg)) of the same compound?
Answer: 27.82%

Question: And the “anti-tumor effect (conclusion in words)” value (HepG2 tumor; Example 2, HepG2 humanized mouse model, combination: high-dose OBI-3424)?
Answer: dose-dependent trend with anti-tumor activity

Question: And the TGI (HepG2 tumor; G2 OBI-3424 (0.3 mg/kg))?
Answer: 27.82%

Question: What about the Tumor volume (HepG2 tumor; G2 OBI-3424 (0.3 mg/kg), D0, group Mean) of the same compound?
Answer: 293.3 mm^3

Question: And the Tumor volume (HepG2 tumor; G2 OBI-3424 (0.3 mg/kg), D0, individual animals, 0.3 mg/kg)?
Answer: 280.0 mm^3 and 279.4 mm^3 and 226.0 mm^3 and 353.6 mm^3 and 317.7 mm^3 and 303.0 mm^3

Question: What about the Tumor volume (HepG2 tumor; G2 OBI-3424 (0.3 mg/kg), D2, group Mean) of the same compound?
Answer: 300.8 mm^3

Question: And the Tumor volume (HepG2 tumor; G2 OBI-3424 (0.3 mg/kg), D2, individual animals, 0.3 mg/kg)?
Answer: 283.9 mm^3 and 281.1 mm^3 and 230.6 mm^3 and 354.0 mm^3 and 321.0 mm^3 and 334.4 mm^3

Question: What about the Tumor volume (HepG2 tumor; G2 OBI-3424 (0.3 mg/kg), D6, group Mean) of the same compound?
Answer: 307.8 mm^3

Question: And the Tumor volume (HepG2 tumor; G2 OBI-3424 (0.3 mg/kg), D6, individual animals, 0.3 mg/kg)?
Answer: 289.0 mm^3 and 293.9 mm^3 and 241.0 mm^3 and 356.0 mm^3 and 330.5 mm^3 and 336.3 mm^3

Question: And the Tumor volume (HepG2 tumor; G2 OBI-3424 (0.3 mg/kg), D9, group Mean)?
Answer: 388.7 mm^3

Question: What about the Tumor volume (HepG2 tumor; G2 OBI-3424 (0.3 mg/kg), D9, individual animals, 0.3 mg/kg) of the same compound?
Answer: 375.6 mm^3 and 367.0 mm^3 and 395.2 mm^3 and 367.9 mm^3 and 388.9 mm^3 and 437.7 mm^3

Question: What about the Tumor volume (HepG2 tumor; G2 OBI-3424 (0.3 mg/kg), D13, group Mean) of the same compound?
Answer: 509.0 mm^3

Question: What about the Tumor volume (HepG2 tumor; G2 OBI-3424 (0.3 mg/kg), D13, individual animals, 0.3 mg/kg) of the same compound?
Answer: 569.5 mm^3 and 452.6 mm^3 and 528.9 mm^3 and 388.3 mm^3 and 590.7 mm^3 and 524.2 mm^3

Question: And the Tumor volume (HepG2 tumor; G2 OBI-3424 (0.3 mg/kg), D16, group Mean)?
Answer: 617.1 mm^3

Question: And the Tumor volume (HepG2 tumor; G2 OBI-3424 (0.3 mg/kg), D16, individual animals, 0.3 mg/kg)?
Answer: 714.1 mm^3 and 528.0 mm^3 and 714.4 mm^3 and 405.8 mm^3 and 749.1 mm^3 and 591.5 mm^3

Question: What about the Tumor volume (HepG2 tumor; G2 OBI-3424 (0.3 mg/kg), D20, group Mean) of the same compound?
Answer: 702.3 mm^3

Question: And the Tumor volume (HepG2 tumor; G2 OBI-3424 (0.3 mg/kg), D20, individual animals, 0.3 mg/kg)?
Answer: 808.4 mm^3 and 658.4 mm^3 and 854.0 mm^3 and 419.5 mm^3 and 751.9 mm^3 and 721.3 mm^3
